Data taken from ChEMBL document CHEMBL1268991, “New stilbenoid with inhibitory activity on viral neuraminidases from Erythrina addisoniae” (Bioorg Med Chem Lett, 2010).

Assays:
Neuraminidase [1] = molecular target: T1, Neuraminidase (Influenza A virus, UniProt B4URF0); experiment: Non-competitive inhibition of influenza A virus H1N1 Neuraminidase using 4-methylumbelliferyl-alpha-D-N-acetylneuraminic acid sodium salt hydrate substrate by Lineweaver burk plot
Neuraminidase [2] = molecular target: T1, Neuraminidase; experiment: Inhibition of influenza A virus H9N2 Neuraminidase using 4-methylumbelliferyl-alpha-D-N-acetylneuraminic acid sodium salt hydrate substrate
Neuraminidase [3] = molecular target: T1, Neuraminidase; experiment: Inhibition of influenza A virus H1N1 Neuraminidase using 4-methylumbelliferyl-alpha-D-N-acetylneuraminic acid sodium salt hydrate substrate

SMILES | Ki (Neuraminidase [1]) [µM] | IC50 (Neuraminidase [2]) [µM] | IC50 (Neuraminidase [3]) [µM]
CC(C)=CCc1cc(/C=C/C(=O)c2ccc(O)cc2O)cc(O)c1O [5'-PRENYLBUTEIN] | 66.7 | 60.1 | 64.4
CC(C)=CCc1cc(/C=C/C(=O)c2ccc(O)cc2O)cc(CC=C(C)C)c1O [ABYSSINONE VI] | 70 | 62.6 | 67.4
CC(C)=CCc1cc(-c2coc3cc(O)cc(O)c3c2=O)ccc1O [CORYLIN] |  | > 148 | > 148
C=C(C)C(O)CC1=c2occ(-c3ccc(O)cc3)c(=O)c2=C(O)C2C=CC(C)(C)OC12 (configuration not stated) [ERYSENEGALENSEIN] |  | > 118 | > 118
CC1(C)C=Cc2c(c(CO)c3occ(-c4ccc(O)cc4)c(=O)c3c2O)O1 [ERYTHRADDISON A] |  | > 136 | > 136
COc1ccc(/C(C=O)=C\c2ccc(O)cc2OC)c(O)c1 [ERYTHRADDISON B] | 32.7 | 23.9 | 29.3
CC1(C)C=Cc2cc(-c3coc4cc(O)ccc4c3=O)ccc2O1 [ISOWIGHTEONE] |  | > 156 | > 156
CC(C)=CCc1cc(/C=C/C(=O)c2ccc(O)cc2O)ccc1O [LICOAGROCHALCONE A] | 68.9 | 61.7 | 66.3
CC(C)=CCc1c(O)cc2occ(-c3ccc(O)cc3)c(=O)c2c1O [WIGHTEONE] |  | > 148 | > 148
